Tests used:
[1] = system: BRCA2 (−/−) DLD1 cells; assay: PARP proliferation assay (7 day compound dosing), BRCA2 (−/−) DLD1; format: cell-based; details: Homo sapiens, DLD-1, 168 h, BRCA2 −/− DLD-1 cells, 7 day dosing; read-out: BRCA2 −/− DLD-1 prolif. 7 d IC50
Experimental: (§1) PARP Proliferation Assay (7 Day Compound Dosing)
(§2) DLD1 and BRCA2 (−/−) DLD1 cells were harvested to a density of 5000 cells/ml and 2.5E4 cells/ml respectively in complete media, 40 μL/well seeded into 384-well plates (Greiner, Kremsmunster, Austria; 781090) using a Multidrop Combi then incubated at 37° C., 5% CO2 overnight. Next day (Day 1) using a Multidrop Combi add sytoxgreen (5 ul, 2 uM) and saponin (10 ul, 0.25% stock) to a day 0 plate, seal the plate using a black adhesive lid and incubate for >3 h at rt. Cells were imaged using Cell Insight (Thermo Fisher) fitted with a 4× objective. Test compounds are added using an Echo 555 and placed in incubator maintained at 37° C., 5% CO2 and incubated for 7 days. On Day 8 add sytox green (5 ul, 2 uM) and then saponin (10 ul, 0.25% stock) to plates, seal the plate using a black adhesive lid and incubate for >3 h at rt. Read all cells on the Cell Insight with 4× Objective. The rate of proliferation is determined in Genedata by assessing the total cell number output from the Cell Insight for Day 0 and Day 8 plates.

[2] = system: DLD1 cells; assay: PARP proliferation assay (7 day compound dosing), WT DLD1; format: cell-based; details: Homo sapiens, 168 h; WT DLD-1 cells, 7 day dosing; read-out: WT DLD-1 prolif. 7 d IC50
Experimental: as §1, §2

[3] = target: hERG (Homo sapiens, UniProt Q12809); assay: hERG inhibition
From the text: It is well known that blockade of the cardiac ion channel coded by human ether-n-gogo-related gene (hERG) is a risk factor in drug discovery and development. Blockage of hERG can cause safety problems such as cardiac arrhythmia. Advantageously, the compounds of Formula I have low hERG activity.

Chain of hERG (Q12809 whole entry): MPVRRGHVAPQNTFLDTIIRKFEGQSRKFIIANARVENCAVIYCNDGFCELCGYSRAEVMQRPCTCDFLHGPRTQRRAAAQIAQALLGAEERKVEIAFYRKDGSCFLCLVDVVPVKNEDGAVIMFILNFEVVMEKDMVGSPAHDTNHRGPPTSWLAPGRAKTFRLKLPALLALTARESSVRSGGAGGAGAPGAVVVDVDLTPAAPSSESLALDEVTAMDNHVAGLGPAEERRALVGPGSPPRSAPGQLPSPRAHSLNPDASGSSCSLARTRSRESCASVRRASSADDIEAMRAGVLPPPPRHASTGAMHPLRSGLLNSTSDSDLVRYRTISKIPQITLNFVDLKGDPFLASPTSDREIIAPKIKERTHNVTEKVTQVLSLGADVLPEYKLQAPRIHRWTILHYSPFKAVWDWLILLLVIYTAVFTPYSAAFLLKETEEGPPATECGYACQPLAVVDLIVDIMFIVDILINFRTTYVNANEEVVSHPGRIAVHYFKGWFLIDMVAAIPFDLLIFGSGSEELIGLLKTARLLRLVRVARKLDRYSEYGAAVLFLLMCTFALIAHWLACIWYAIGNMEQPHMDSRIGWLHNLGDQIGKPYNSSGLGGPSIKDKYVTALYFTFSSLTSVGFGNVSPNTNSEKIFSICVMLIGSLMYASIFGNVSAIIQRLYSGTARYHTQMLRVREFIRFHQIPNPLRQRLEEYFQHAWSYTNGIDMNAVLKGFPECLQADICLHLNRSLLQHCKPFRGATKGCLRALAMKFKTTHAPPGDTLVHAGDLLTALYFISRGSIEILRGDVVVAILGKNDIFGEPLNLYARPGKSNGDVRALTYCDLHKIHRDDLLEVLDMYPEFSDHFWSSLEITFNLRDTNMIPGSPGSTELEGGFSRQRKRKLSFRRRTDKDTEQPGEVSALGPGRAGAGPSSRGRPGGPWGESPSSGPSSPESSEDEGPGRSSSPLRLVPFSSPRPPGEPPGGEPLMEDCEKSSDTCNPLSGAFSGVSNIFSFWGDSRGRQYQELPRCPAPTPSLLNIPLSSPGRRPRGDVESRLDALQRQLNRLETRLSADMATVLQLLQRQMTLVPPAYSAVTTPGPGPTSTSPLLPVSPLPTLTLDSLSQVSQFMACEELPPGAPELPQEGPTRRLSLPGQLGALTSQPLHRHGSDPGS

| IC50 [1] | IC50 [2] | SMILES | IC50 [3] |
| --- | --- | --- | --- |
| 0.014 µM | 24 µM | CNC(=O)c1ccc(N2CCN(Cc3ccc4nc(C)c(=O)[nH]c4c3C)CC2)c(F)n1 [Example 1, 5-[4-[(2,5-dimethyl-3-oxo-4H-quinoxalin-6-yl)methyl]piperazin-1-yl]-6-fluoro-N-methyl-pyridine-2-carboxamide] | > 40 µM |
| 0.734 µM | – | CNC(=O)c1ccc(N2CCN(Cc3ccc4nc(C)c(=O)[nH]c4c3C)CC2)cn1 [Example 2, 5-[4-[(2,5-dimethyl-3-oxo-4H-quinoxalin-6-yl)methyl]piperazin-1-yl]-N-methyl-pyridine-2-carboxamide] | > 40 µM |
| 0.008 µM | 25 µM | CNC(=O)c1ccc(N2CCN(Cc3ccc4nc(C)c(=O)[nH]c4c3C)CC2)c(Cl)n1 [Example 3, 6-chloro-5-[4-[(2,5-dimethyl-3-oxo-4H-quinoxalin-6-yl)methyl]piperazin-1-yl]-N-methyl-pyridine-2-carboxamide] | > 40 µM |
| 0.081 µM | > 14 µM | CNC(=O)c1ccc(N2CCN(Cc3ccc4nc(C)c(=O)[nH]c4c3C)CC2)c(C)n1 [Example 4, 5-[4-[(2,5-dimethyl-3-oxo-4H-quinoxalin-6-yl)methyl]piperazin-1-yl]-N,6-dimethyl-pyridine-2-carboxamide] | > 40 µM |
| 2.89 µM | – | Cc1nc2ccc(CN3CCN(c4ccc(C(N)=O)nc4F)CC3)c(C)c2[nH]c1=O [Example 5, 5-[4-[(2,5-dimethyl-3-oxo-4H-quinoxalin-6-yl)methyl]piperazin-1-yl]-6-fluoro-pyridine-2-carboxamide] | – |
| 8.43 µM | > 30 µM | Cc1nc(C(N)=O)ccc1N1CCN(Cc2ccc3nc(C)c(=O)[nH]c3c2C)CC1 [Example 7, 5-[4-[(2,5-dimethyl-3-oxo-4H-quinoxalin-6-yl)methyl]piperazin-1-yl]-6-methyl-pyridine-2-carboxamide] | – |
| 0.006 µM | – | CNC(=O)c1ccc(N2CCN(Cc3ccc4nc(C(C)(F)F)c(=O)[nH]c4c3F)CC2)c(C)n1 [Example 19, 5-[4-[[2-(1,1-difluoroethyl)-5-fluoro-3-oxo-4H-quinoxalin-6-yl]methyl]piperazin-1-yl]-N,6-dimethyl-pyridine-2-carboxamide] | > 40 µM |
| 1.42 µM | – | CNC(=O)c1ccc(N2CCN(Cc3ccc4nc(C)c(=O)[nH]c4c3F)CC2)c(C(F)F)n1 [Example 21, 6-(difluoromethyl)-5-[4-[(5-fluoro-2-methyl-3-oxo-4H-quinoxalin-6-yl)methyl]piperazin-1-yl]-N-methyl-pyridine-2-carboxamide] | > 40 µM |
| 0.297 µM | – | CCc1nc2ccc(CN3CCN(c4ccc(C(N)=O)nc4)CC3)c(F)c2[nH]c1=O [Example 25, 5-[4-[(2-ethyl-5-fluoro-3-oxo-4H-quinoxalin-6-yl)methyl]piperazin-1-yl]pyridine-2-carboxamide] | – |
| 0.004 µM | – | CCc1nc2ccc(CN3CCN(c4ccc(C(=O)NC)nc4Cl)CC3)c(F)c2[nH]c1=O [Example 28, 6-chloro-5-[4-[(2-ethyl-5-fluoro-3-oxo-4H-quinoxalin-6-yl)methyl]piperazin-1-yl]-N-methyl-pyridine-2-carboxamide] | > 38 µM |
| – | > 30 µM | CNC(=O)c1ccc(N2CCN(Cc3ccc4nc(C)c(=O)[nH]c4c3F)CC2)c(C)n1 [Example 31, 5-[4-[(5-fluoro-2-methyl-3-oxo-4H-quinoxalin-6-yl)methyl]piperazin-1-yl]-N,6-dimethyl-pyridine-2-carboxamide] | > 40 µM |
| > 30 µM | – | CNC(=O)c1ccc(N2CCN(Cc3ccc4ncc(=O)[nH]c4c3F)CC2)cn1 [Example 33, 5-[4-[(5-fluoro-3-oxo-4H-quinoxalin-6-yl)methyl]piperazin-1-yl]-N-methyl-pyridine-2-carboxamide] | – |
| 8.44 µM | – | CNC(=O)c1ccc(N2CCN(Cc3ccc4ncc(=O)[nH]c4c3F)CC2)c(Cl)n1 [Example 34, 6-chloro-5-[4-[(5-fluoro-3-oxo-4H-quinoxalin-6-yl)methyl]piperazin-1-yl]-N-methyl-pyridine-2-carboxamide] | – |
| 10.3 µM | > 30 µM | CNC(=O)c1ccc(N2CCN(Cc3ccc4ncc(=O)[nH]c4c3F)CC2)c(C)n1 [Example 35, 5-[4-[(5-fluoro-3-oxo-4H-quinoxalin-6-yl)methyl]piperazin-1-yl]-N,6-dimethyl-pyridine-2-carboxamide] | – |
| 16.2 µM | – | CNC(=O)c1ccc(N2CCN(Cc3ccc4ncc(=O)[nH]c4c3F)CC2)c(F)n1 [Example 36, 6-fluoro-5-[4-[(5-fluoro-3-oxo-4H-quinoxalin-6-yl)methyl]piperazin-1-yl]-N-methyl-pyridine-2-carboxamide] | – |
| 0.01 µM | – | CNC(=O)c1ccc(N2CCN(Cc3ccc4nc(C(F)F)c(=O)[nH]c4c3F)CC2)c(C)n1 [Example 37, 5-[4-[[2-(difluoromethyl)-5-fluoro-3-oxo-4H-quinoxalin-6-yl]methyl]piperazin-1-yl]-N,6-dimethyl-pyridine-2-carboxamide] | – |
| 0.547 µM | – | CNC(=O)c1ccc(N2CCN(Cc3ccc4nc(OC)c(=O)[nH]c4c3F)CC2)cn1 [Example 38, 5-[4-[(5-fluoro-2-methoxy-3-oxo-4H-quinoxalin-6-yl)methyl]piperazin-1-yl]-N-methyl-pyridine-2-carboxamide] | > 40 µM |
| 0.008 µM | – | CNC(=O)c1ccc(N2CCN(Cc3ccc4nc(OC)c(=O)[nH]c4c3F)CC2)c(F)n1 [Example 39, 6-fluoro-5-[4-[(5-fluoro-2-methoxy-3-oxo-4H-quinoxalin-6-yl)methyl]piperazin-1-yl]-N-methyl-pyridine-2-carboxamide] | > 40 µM |
| 0.007 µM | – | CNC(=O)c1ccc(N2CCN(Cc3ccc4nc(OC)c(=O)[nH]c4c3F)CC2)c(C)n1 [Example 40, 5-[4-[(5-fluoro-2-methoxy-3-oxo-4H-quinoxalin-6-yl)methyl]piperazin-1-yl]-N,6-dimethyl-pyridine-2-carboxamide] | > 40 µM |
| 0.007 µM | – | CNC(=O)c1ccc(N2CCN(Cc3ccc4nc(OC)c(=O)[nH]c4c3F)CC2)c(Cl)n1 [Example 41, 6-chloro-5-[4-[(5-fluoro-2-methoxy-3-oxo-4H-quinoxalin-6-yl)methyl]piperazin-1-yl]-N-methyl-pyridine-2-carboxamide] | > 40 µM |
| 0.006 µM | – | CCc1nc2ccc(CN3CCN(c4ccc(C(=O)NC)nc4C)CC3)c(C)c2[nH]c1=O [Example 42, 5-[4-[(2-ethyl-5-methyl-3-oxo-4H-quinoxalin-6-yl)methyl]piperazin-1-yl]-N,6-dimethyl-pyridine-2-carboxamide] | – |
| 0.01 µM | – | CCc1nc2ccc(CN3CCN(c4ccc(C(=O)NC)nc4F)CC3)c(C)c2[nH]c1=O [Example 43, 5-[4-[(2-ethyl-5-methyl-3-oxo-4H-quinoxalin-6-yl)methyl]piperazin-1-yl]-6-fluoro-N-methyl-pyridine-2-carboxamide] | – |
| > 30 µM | – | CCc1nc2ccc(CN3CCN(c4ccc(C(=O)NC)nc4)CC3)c(C)c2[nH]c1=O [Example 44, 5-[4-[(2-ethyl-5-methyl-3-oxo-4H-quinoxalin-6-yl)methyl]piperazin-1-yl]-N-methyl-pyridine-2-carboxamide] | – |
| 0.006 µM | – | CCNC(=O)c1ccc(N2CCN(Cc3ccc4nc(C)c(=O)[nH]c4c3F)CC2)c(F)n1 [Example 45, N-ethyl-6-fluoro-5-[4-[(5-fluoro-2-methyl-3-oxo-4H-quinoxalin-6-yl)methyl]piperazin-1-yl]pyridine-2-carboxamide] | – |
| 0.013 µM | – | CCNC(=O)c1ccc(N2CCN(Cc3ccc4nc(C)c(=O)[nH]c4c3F)CC2)c(C)n1 [Example 46, N-ethyl-5-[4-[(5-fluoro-2-methyl-3-oxo-4H-quinoxalin-6-yl)methyl]piperazin-1-yl]-6-methyl-pyridine-2-carboxamide] | – |
| 0.058 µM | – | CNC(=O)c1ccc(N2CCN(Cc3ccc4nc(C(F)(F)F)c(=O)[nH]c4c3F)CC2)c(C)n1 [Example 47, 5-[4-[[5-fluoro-3-oxo-2-(trifluoromethyl)-4H-quinoxalin-6-yl]methyl]piperazin-1-yl]-N,6-dimethyl-pyridine-2-carboxamide] | > 40 µM |
| 0.041 µM | – | CNC(=O)c1ccc(N2CCN(Cc3ccc4nc(C(F)(F)F)c(=O)[nH]c4c3F)CC2)c(Cl)n1 [Example 49, 6-chloro-5-[4-[[5-fluoro-3-oxo-2-(trifluoromethyl)-4H-quinoxalin-6-yl]methyl]piperazin-1-yl]-N-methyl-pyridine-2-carboxamide] | > 40 µM |
| 0.136 µM | – | CNC(=O)c1ccc(N2CCN(Cc3ccc4nc(C(F)(F)F)c(=O)[nH]c4c3F)CC2)cn1 [Example 50, 5-[4-[[5-fluoro-3-oxo-2-(trifluoromethyl)-4H-quinoxalin-6-yl]methyl]piperazin-1-yl]-N-methyl-pyridine-2-carboxamide] | > 40 µM |

Reference: patent US12421208B2, “Chemical compounds” (ASTRAZENECA AB, priority 2020, dated 2025)
